Consider 5 molecules from patent publication EP1336412A1, “Combinations of an antibiotic and a murein hydrolase inhibitor” (priority 2002, dated 2003).

One assay has as its system wild-type E. coli MC1061. The assay is described as follows: Growth of wild-type E. coli after addition of agent. The format is cell-based, Escherichia coli. The following applies: vancomycin 20 µg/ml; LB medium, 37°C, aerobic; wild type (septum cleavage not inhibited). The procedure:
(§1) Bacteria were cultivated aerobically at 37° C in LB medium (J.H. Miller, Experiments in Molecular Genetics, Cold Spring Harbor Laboratory, Cold Spring Harbor (1972)). Agar plates contained 1.5 % agar (Gibco BRL, Paisley, Scotland). Growth was monitored by optical density readings at 578 nm in an Eppendorf photometer (Eppendorf, Hamburg, Germany). Antibiotics were used at the following concentrations: 50 (µg/ml ampicillin (amp), 50 (µg/ml kanamycin (kan), 20 (µg/ml chloramphenicol (cm) and 12.5 µg/ml tetracyclin (tet).
(§2) At the indicated time point (arrow) deoxycholate (1 g/l) or crystal violet (1 mg/l), respectively, were added. See the results in Fig. 4 (filled circles: wild type E. coli plus deoxycholate; filled triangles: MHD52 plus crystal violet; filled squares: MHD52 plus deoxycholate). Likewise, the cells were grown in the same manner, but at the indicated time point (arrow) vancomycin (20 µg/ml) was added. See the results in Fig. 5 (open circles: wild type E. coli; filled circles: wild type E. coli plus vancomycin; open squares: MHD52; filled squares: MHD52 plus vancomycin).

Assay [1] has as its system E. coli MHD52 (deletion of AmiABC). The assay is described as follows: Growth of E. coli with inhibited murein septum cleavage (MHD52) after addition of agent. The class given is cell-based, Escherichia coli. The conditions noted are these: LB medium, 37°C, aerobic. The procedure: as §1, §2
In assay [2] the test system is bacterial cells following the inhibition of the cleavage of the bacterial murein septum. The assay is described as follows: Sensitivity of bacterial cells to detergents and high molecular weight antibiotics after inhibition of murein septum cleavage. The format is cell-based.

In the case of `CN[C@H](CC(C)C)C(=O)N[C@H]1C(=O)N[C@@H](CC(N)=O)C(=O)N[C@H]2C(=O)N[C@H]3C(=O)N[C@H](C(=O)N[C@H](C(=O)O)c4cc(O)cc(O)c4-c4cc3ccc4O)[C@H](O)c3ccc(c(Cl)c3)Oc3cc2cc(c3O[C@@H]2O[C@H](CO)[C@@H](O)[C@H](O)[C@H]2O[C@H]2C[C@](C)(N)[C@H](O)[C@H](C)O2)Oc2ccc(cc2Cl)[C@H]1O` [vancomycin], the “effect on growth (Fig. 5)” value is given as “normal growth” in the assay on wild-type E. coli MC1061 and “growth controlling effect” in assay [1] (vancomycin 20 µg/ml, MHD52 (septum cleavage inhibited)).
ramoplanin: the “sensitivity of bacterial cells” value in assay [2] is reported as “significant increase in the sensitivity”.
As for `CN(C)c1ccc(C(=C2C=CC(=[N+](C)C)C=C2)c2ccc(N(C)C)cc2)cc1` [crystal violet], in assay [1] (crystal violet 1 mg/l, MHD52), the “effect on growth (Fig. 4)” value is recorded as “insignificant effect”.
On to mersacidin, for which, in assay [2], the “sensitivity of bacterial cells” value is given as “significant increase in the sensitivity”.
Same read-out and setting: as for Triton X100, the entry is “significant increase in the sensitivity”.
